From US4081441A, “Antibacterial agents” (priority 1977, dated 1978)
Read-outs that look alike come from different tables or passages of the source.

Columns and labels:
Cl. septicum = experiment: M.I.C. against anaerobic bacteria, Cl. septicum; type: cell-based; conditions: Clostridium septicum; strain A21869
Cl. acidiurici = experiment: M.I.C. against anaerobic bacteria, Cl. acidiurici; type: cell-based; conditions: strain A9560
Bacteroides fragilis = experiment: M.I.C. against anaerobic bacteria, Bacteroides fragilis; type: cell-based
Cl. perfringens = experiment: microbe, parasite or virus in culture; type: cell-based; conditions: Clostridium perfringens
Cl. cylindrosporum = experiment: M.I.C. against anaerobic bacteria, Cl. cylindrosporum; type: cell-based; conditions: strain A9562
Pseudomonas aeruginosa = experiment: animal or person; conditions: in Mus musculus, im
Cl. ramosum = experiment: M.I.C. against anaerobic bacteria, Cl. ramosum; type: cell-based; conditions: Thomasclavelia ramosa
Cl. difficile = experiment: M.I.C. against anaerobic bacteria, Cl. difficile; type: cell-based; conditions: Clostridioides difficile

## CC1(C)S[C@@H]2[C@H](NC(=O)[C@H](NC(=O)c3n[nH]c(=S)[nH]c3=O)c3ccc(O)cc3)C(=O)N2[C@H]1C(=O)O [BL-P1937, sodium D(-)-6-(α-(1,2,4-triazine-3-thione-5-one-6-carboxamido)-4-hydroxyphenylacetamido)-penicillanate]
Cl. septicum
  MIC: 1 µg/mL
Cl. acidiurici
  MIC: 1 µg/mL
Bacteroides fragilis; strain A20920
  MIC: 0.5 µg/mL
Bacteroides fragilis; strain A20926
  MIC: 2 µg/mL
Bacteroides fragilis; strain A20927-1
  MIC: 1 µg/mL
Bacteroides fragilis; strain A20930
  MIC: 16 µg/mL
Bacteroides fragilis; strain A20933
  MIC: 4 µg/mL
Bacteroides fragilis; strain A20934
  MIC: 4 µg/mL
Bacteroides fragilis; strain A20935
  MIC: 2 µg/mL
Bacteroides fragilis; strain A21870
  MIC: 1 µg/mL
Bacteroides fragilis; strain A21871
  MIC: 2 µg/mL
Bacteroides fragilis; strain A21872
  MIC: 16 µg/mL
Bacteroides fragilis; strain A21875
  MIC: 8 µg/mL
Bacteroides fragilis; strain A22053
  MIC: 2 µg/mL
Bacteroides fragilis; strain A27020
  MIC: 8 µg/mL
Cl. perfringens; strain A21873
  MIC: 0.063 µg/mL
Cl. perfringens; strain A21874
  MIC: 0.13 µg/mL
Cl. perfringens; strain A21907
  MIC: 0.25 µg/mL
Cl. cylindrosporum
  MIC: 0.25 µg/mL
Pseudomonas aeruginosa; read-out: PD50 /treatment, P. aeruginosa A9843A, challenge 1 × 10^4, i.m., at 0 and 2 hours
  ED50: 11 mg/kg
Pseudomonas aeruginosa; read-out: PD50 /treatment, P. aeruginosa A9843A, challenge 2 × 10^4, i.m., at 0 and 2 hours
  ED50: 5.4 mg/kg
Pseudomonas aeruginosa; read-out: PD50 /treatment, P. aeruginosa A9843A, challenge 3 × 10^4, i.m., at 0 and 2 hours
  ED50: 11 mg/kg
Pseudomonas aeruginosa; read-out: PD50 /treatment, P. aeruginosa A20599, challenge 3 × 10^4, i.m., at 0 and 2 hours
  ED50: ~13 mg/kg
Pseudomonas aeruginosa; read-out: PD50 /treatment, P. aeruginosa A20599, challenge 6 × 10^4, i.m., at 0 and 2 hours
  ED50: 22 mg/kg
Cl. ramosum; strain A21883
  MIC: 0.25 µg/mL
Cl. ramosum; strain A21970
  MIC: 2 µg/mL
Cl. difficile; strain A21675
  MIC: 4 µg/mL
Cl. difficile; strain A21972
  MIC: 4 µg/mL
